Test results published in paper PMC4876444, “Two-Photon Enzymatic Probes Visualizing Sub-cellular/Deep-brain Caspase Activities in Neurodegenerative Models” (Scientific Reports, 2016).

What was measured:
[1] = tested on: caspase-3-like activities in STS-induced BV2 and HeLa cells; experiment: TPFM live-cell imaging of STS-induced apoptotic cells; assay type: cell-based, mouse, human; conditions: BV2 (STS 2 μM) and HeLa (STS 1 μM) cells, 4 h STS, probe 24 μM 1 h; not in mock cells
Description: Figure 3 Bioimaging of active caspases in live cells. TPFM (λex = 760 nm; λem = 480-550 nm for all AAN-probes) of STS-induced (a) BV2 cells (2 μM, 4 h) and (b) HeLa cells (1 μM, 4 h) using C3RA/C8RA (24 μM, 1 h). Panels 3/6: cells pretreated with Z-VAD(OMe)-FMK (50 μM, 1 h) before STS addition. Panels 1/4: normal cells (DMSO). (c) WB analysis of cleaved caspase-3/-8 from (a,b). (d) TPFM of normal/apoptotic Hela cells imaged by C3RA (24 μM, up) or Ac-DEVD-AMC (40 μM, down; λem = 420–500 nm). Panels 1/3: normal cells. Panels 2/4: STS-induced cells (1 μM, 4 h). Bottom inset: bright field. Top inset: one-photon images (λex = 405 nm). (e) Real-time imaging of caspase-3/-8-like activities in live BV2 cells using 24 μM of C3RA (top)/C8RA (bottom) upon STS (2 μM) stimulation over 2 h. (f) Graphical quantification of RFU extracted from (e). (g) WB analysis of time-dependent caspase-3/-8 cleavage from STS-induced (2 μM) BV2 lysates. (h) WB analysis of time-dependent caspase-3/-7/-8 activation by detection of cleaved caspase-3/-7/-8 from lysates of HeLa cells stimulated with STS (2 μM). (i) RFU from real-time imaging of caspase-3-like activity in live HeLa cells with C3RA/C3RM/C3RE (24 μM, added 1 h before STS) upon STS (2 μM) stimulation. (j) Representative images (t = 60 min) from (i). (k) IF of STS-stimulated (2 μM, 2 h) HeLa cells by anti-caspase-3 (p17) antibody (red) with 3D projections of z-stack images at 90° view and merged with MitoTracker (green, left) or ER tracker (cyan, right). (l) TPFM of caspase-1 activation in primary cortical neurons upon glucose deprivation (GD, 8 h) followed by 1-h incubation with C1RB (24 μM) or C1FS (12 μM; λem = 450–550 nm). Inset: bright field images. NC: neuron cells incubated in normal neurobasal medium. Scale bar = 10 μm in all images.
NIH/3T3, HeLa and BV2 cell lines used in our experiments were cultured in DMEM medium supplemented with 10% (for NIH/3T3 and HeLa) or 5% (for BV2) fetal bovine serum (FBS), with 100.0 mg/L streptomycin and 100 IU/mL penicillin. […]

With `CC(=O)N[C@@H](CC(=O)O)C(=O)N[C@@H](CCC(=O)O)C(=O)N[C@H](C(=O)N[C@@H](CC(=O)O)C(=O)Nc1ccc2cc(C(C)=O)ccc2c1)C(C)C` [C3RA, Ac-DEVD-AAN] the “intracellular two-photon fluorescence after STS treatment” value [1] was “strong intracellular fluorescence” and the δΦ (two-photon action cross-section) was 2.9 GM.
